In data set [1] the test system is THP-1. Description: Antiinflammatory activity in LPS-stimulated human THP1 cells assessed as inhibition of IL-6 release at 10 ug/ml after 24 hrs by ELISA relative to control. The following applies: THP-1, 24 h. It counts as functional.
The subject of data set [2] is THP-1. Kind of data set: Antiinflammatory activity in LPS-stimulated human THP1 cells assessed as inhibition of TNFalpha release at 10 ug/ml after 24 hrs by ELISA relative to control. The class given is functional. The following applies: THP-1, 24 h.
Data set [3] is described as follows: Cytotoxicity against human THP1 cells assessed as cell viability at 10 ug/ml after 24 hrs by CCK-8 assay. It counts as cell-based. The following applies: THP-1 cells, read-out: Activity.
For data set [4], the system named is THP-1. Kind of data set: Antiinflammatory activity in LPS-stimulated human THP1 cells assessed as inhibition of IL-6 release at 1 ug/ml after 24 hrs by ELISA relative to control. It counts as functional. Conditions: THP-1, 24 h.
Data set [5] is described as follows: Cytotoxicity against human THP1 cells assessed as cell viability at 1 ug/ml after 24 hrs by CCK-8 assay. Conditions: THP-1 cells.
In data set [6] the test system is THP-1. Description: Antiinflammatory activity in LPS-stimulated human THP1 cells assessed as inhibition of TNFalpha release at 1 ug/ml after 24 hrs by ELISA relative to control. The class given is functional. Conditions: THP-1, 24 h.

As to `CCOC(=O)c1cn(-c2ccc(Cl)cc2)nc1-c1sc(N(C)c2ccccc2)nc1-c1ccccc1`, the inhibition at 10 µg/mL in the data set on THP-1 [1] came out at 51%; in the data set with THP-1 [2] it was 11%. Besides, the viability at 24 h, 10 ug/ml in data set [3] amounted to 23%.
`CCOC(=O)c1cn(-c2ccc([N+](=O)[O-])cc2[N+](=O)[O-])nc1-c1sc(N(C)c2ccccc2)nc1-c1ccccc1`: the results for the inhibition at 10 µg/mL in the data set with THP-1 [1] and in the data set with THP-1 [2] were 52% and 5%, respectively. Besides, in data set [3], the viability at 24 h, 10 ug/ml was 17%.
In the case of `CCOC(=O)c1c[nH]nc1-c1sc(N(CC)c2ccccc2)nc1-c1ccccc1`, the inhibition at 10 µg/mL in the data set on THP-1 [1] was 56%; in the data set with THP-1 [2] it was 14%. Besides, in data set [3], the viability at 24 h, 10 ug/ml was found to be 39%.
The like results for `CCOC(=O)c1cn(-c2ccccc2)nc1-c1sc(N(CC)c2ccccc2)nc1-c1ccccc1` were, in that order, 47%, 0% and 23%.
The like results for `CCOC(=O)c1cn(-c2ccc(F)cc2)nc1-c1sc(N(CC)c2ccccc2)nc1-c1ccccc1` were, in that order, 48%, 0% and 22%.
The like results for `CCOC(=O)c1cn(-c2ccc(Cl)cc2)nc1-c1sc(N(CC)c2ccccc2)nc1-c1ccccc1` were, in that order, 58%, 2% and 29%.
On to `CCOC(=O)c1cn(-c2ccc([N+](=O)[O-])cc2[N+](=O)[O-])nc1-c1sc(N(CC)c2ccccc2)nc1-c1ccccc1`, for which the results for the inhibition at 10 µg/mL in the data set on THP-1 [1] and in the data set with THP-1 [2] were 73% and 0%, respectively. Moreover, the viability at 24 h, 10 ug/ml in data set [3] was 35%.
The like results for `CCOC(=O)c1c[nH]nc1-c1sc(N(Cc2ccccc2)c2ccccc2)nc1-c1ccccc1` were, in that order, 78%, 13% and 23%.
The like results for `CCOC(=O)c1cn(-c2ccccc2)nc1-c1sc(N(Cc2ccccc2)c2ccccc2)nc1-c1ccccc1` were, in that order, 53%, 12% and 21%.
The like results for `CCOC(=O)c1cn(-c2ccc(F)cc2)nc1-c1sc(N(Cc2ccccc2)c2ccccc2)nc1-c1ccccc1` were, in that order, 46%, 16% and 10%.
Regarding `CCOC(=O)c1cn(-c2ccc(Cl)cc2)nc1-c1sc(N(Cc2ccccc2)c2ccccc2)nc1-c1ccccc1`, the inhibition at 10 µg/mL with THP-1 [1] was found to be 20%; in the data set on THP-1 [2] it was 7%. In data set [3], the viability at 24 h, 10 ug/ml was determined as 2%.
The like results for `CCOC(=O)c1c[nH]nc1-c1sc(N(C)c2ccccc2)nc1-c1ccccc1` were, in that order, 71%, 5% and 26%.
For `CCOC(=O)c1cn(-c2ccccc2)nc1-c1sc(N(C)c2ccccc2)nc1-c1ccccc1`, the inhibition at 10 µg/mL in the data set on THP-1 [1] is 52%; with THP-1 [2], 0%. The viability at 24 h, 10 ug/ml in data set [3] came out at 25%.
The like results for `CCOC(=O)c1cn(-c2ccc(F)cc2)nc1-c1sc(N(C)c2ccccc2)nc1-c1ccccc1` were, in that order, 61%, 4% and 33%.
With `C[C@@H]1C[C@H]2[C@@H]3CCC4=CC(=O)C=C[C@]4(C)[C@@]3(F)[C@@H](O)C[C@]2(C)[C@@]1(O)C(=O)CO` [DEXAMETHASONE], the figures for the inhibition at 1 µg/mL in the data set with THP-1 [4] and in the data set with THP-1 [6] were 85% and 72%, respectively. Besides, the viability at 24 h, 1 ug/ml in data set [5] amounted to 0%.

Values taken from ChEMBL document CHEMBL2424627, “Synthesis of novel bioactive pyrazolothiazoles” (Med Chem Res, 2013).
